Test results published in patent US8022103B2, “Ester prodrugs of prostratin and related phorbol compounds” (Salvia Sciences, Inc., priority 2005, dated 2011).
In brackets after ≈: the same amount, converted by molar mass. Read-outs that look alike come from different tables or passages of the source.

How the values were obtained:
Type in all cases: cell-based
[1] = system: HIV-1IIIB; assay: PBMC antiviral assay, HIV-1IIIB; settings: human PBMCs
Experimental: (§1) Compounds SA-101A and SA-101B were tested for antiviral activity against HIV-1 in peripheral blood mononuclear cells (PBMC) acutely infected with the HIV-1 isolates. PBMCs were derived from normal HIV-1 negative donors, and cultured under conditions which promote cell survival and HIV replication. Fresh human blood was obtained commercially from Biological Specialty Corporation (Colmar, Pa.). The low passage clinical isolates HIV-1Ba-L, HIVIIIB, and SIVmac251 were from the NIAID AIDS Research and Reference Reagent Program. Immediately before use, pre-titered aliquot of the viruses were removed from storage in a freezer (−80° C.) and thawed rapidly to room temperature in a biological safety cabinet. Phytohemagglutinin (PHA-P) was obtained from Sigma (St. Louis, Mo.) and recombinant IL-2 was obtained from R&D Systems Inc. (Minneapolis, Minn.). Antiviral activity was tested from a high-test concentration of 100 μM or 100 μg/ml with nine ½-log serial dilutions of the compound to derive applicable IC50 (concentration inhibition virus replication by 50%), IC90 (concentration inhibition virus replication by 90%), TC50 (concentration decreasing cell viability by 50%) and TI (therapeutic index: TC50/IC50) values.
Preparation of PMBC. Fresh Human PBMCs, Seronegative for HIV and HBV, were isolated from screened donors (Interstate Blood Bank, Inc. Memphis, Tenn.). Cells were pelleted/washed 2-3 times by low speed centrifugation and resuspensded in PBS to remove contaminating platelets. The leukophoresed blood was then diluted 1:1 with Dulbecco's Phosphate Buffered Saline (DPBS) and layered over 14 mL of Lymphocyte Separation Medium (LSM; Cellgro® by Mediatech, Inc.; density 1.078+/−0.002 g/ml; Cat. # 85-072-CL) in a 50 mL centrifuge tube and then centrifuged for 30 minutes at 600×g. […]
(§2) PMBC assay. […] Pooling (mixing) of mononuclear cells from more than one donor is used to minimize the variability observed between individual donors, which results from quantitative and qualitative differences in HIV infection and overall response to the PHA and IL-2 of primary lymphocyte populations. […]

[2] = system: CEM-SS cells; assay: MTS cell viability in CEM-SS cells (cytotoxicity); settings: for TC50: MTS; for Cytotoxicity: at the concentrations evaluated
Experimental: (§3) Cell Preparation. CEM-SS cells were passaged in T-75 flasks prior to use in the antiviral assay. On the day preceding the assay, the cells were split 1:2 to assure they were in an exponential growth phase at the time of infection. Total cell and viability quantification was performed using a hemacytometer and trypan blue exclusion. Cell viability was greater than 95% for the cells to be utilized in the assay. The cells were resuspended at 5×10^4 cells/ml in tissue culture medium and added to the drug-containing microliter plates in a volume of 50 μl.
MTS Staining for Cell Viability. At assay termination, the assay plates were stained with the soluble tetrazolium-based dye MTS (Cell Titer Reagent Promega) to determine cell viability and quantify compound toxicity. At termination of the assay, 20 μL of MTS reagent was added per well. The microtiter plates were then incubated 4 6 hrs at 37° C. Adhesive plate sealers were used in place of the lids, the sealed plate was inverted several times to mix the soluble formazan product and the plate was read spectrophotometrically at 490/650 ηm with a Molecular Devices Vmax plate reader.
Data Analysis. Using an in-house computer program, IC50 (50%, inhibition of virus replication), IC95 (95%, inhibition of virus replication), TC50 (50% reduction in cell viability), TC95 (95% reduction in cell viability), and a therapeutic index (TI=TC50/IC50) were determined.

[3] = system: HIV-1Ba-L; assay: PBMC antiviral assay, HIV-1Ba-L; settings: human PBMCs
Experimental: as §1
Preparation of PMBC. Fresh Human PBMCs, Seronegative for HIV and HBV, were isolated from screened donors (Interstate Blood Bank, Inc. Memphis, Tenn.). Cells were pelleted/washed 2-3 times by low speed centrifugation and resuspensded in PBS to remove contaminating platelets. The leukophoresed blood was then diluted 1:1 with Dulbecco's Phosphate Buffered Saline (DPBS) and layered over 14 mL of Lymphocyte Separation Medium (LSM; Cellgro® by Mediatech, Inc.; density 1.078+/−0.002 g/ml; Cat. # 85-072-CL) in a 50 mL centrifuge tube and then centrifuged for 30 minutes at 600×g. Banded PBMCs were gently aspirated from the resulting interface and subsequently washed 2× with PBS by low speed centrifugation. After the final wash, cells were enumerated by trypan blue exclusion and re-suspended at 1×10^7 cells/mL in RPMI 1640 supplemented with 15% Fetal Bovine Serum (FBS), and 2 mM L-glutamine, 4 μg/mL Phytohemagglutinin (PHA-P, Sigma). The cells were allowed to incubate for 48-72 hours at 37° C. After incubation, PBMCs were centrifuged and re-suspended in RPMI 1640 with 15% FBS, 2 mM L-glutamine, 100 U/mL penicillin, 100 μg/mL streptomycin, 10 μg/mL gentamycin, and 20 U/mL recombinant human IL-2 (R&D Systems, Inc). […]
as §2

[4] = system: HIV-1IIIB; assay: HIV-1 antiviral cytoprotection assay in CEM-SS cells
Experimental: Antiviral efficacy of SA-101A and SA-101B compounds were evaluated in an HIV 1 antiviral cytoprotection assay using CEM-SS cells and the laboratory adapted HIV 1IIIB virus strain.
Compound preparation. Compounds SA-101A and SA-101B were prepared in powder form and solubilized in DMSO and stored at −20° C. AZT (Sigma), solubilized in sterile H2O, was used as a positive antiviral control and was stored at 4° C. The compounds were evaluated at a high test concentration of 500 μg/mL. AZT was run in parallel at a concentration of 500 nM.
as §3, with “The cells were resuspended at 5×10^4 cells/ml in tissue culture medium and added to the drug-containing microliter plates in a volume of 50 μl.” left out
Virus Preparation. […] The virus was resuspended and diluted into tissue culture medium such that the amount of virus added to each well in a volume of 50 μl was the amount determined to give approximately 90% cell killing at 6 days post-infection.
MTS Staining for Cell Viability. At assay termination, the assay plates were stained with the soluble tetrazolium-based dye MTS (Cell Titer Reagent Promega) to determine cell viability and quantify compound toxicity. […]

[5] = Human immunodeficiency virus 1, PBMC, read-out: IC90

Structure (SMILES)	IC90 ([1]; 40% Human AB serum) [mg/L]	TC50 [2] [mg/L]	Cytotoxicity [2]	IC50 ([3]; 40% Human AB serum) [mg/L]	IC90 ([3]; 40% Human AB serum) [mg/L]	IC50 [4]	IC50 ([1]; Human immunodeficiency virus 1, PBMC) [mg/L]	IC90 [1, 5] [mg/L]	IC50 ([3]; Human immunodeficiency virus 1, PBMC, read-out: IC50) [mg/L]	IC90 [3, 5] [mg/L]	IC50 ([4]; Human immunodeficiency virus 1, read-out: IC50) [mg/L]
CC(=O)OC12CC(C)C3(O)C(C=C(COC(=O)CCC(=O)O)CC4(O)C(=O)C(C)=CC43)C1C2(C)C (stereo not shown) [SA-101B, Prostratin Succinate]	>1.00	>0.50	no cytotoxicity	0.0007	>1.00	did not achieve an IC50 value	–	–	–	–	–
CC(=O)O[C@@]12C[C@@H](C)[C@@]3(O)[C@@H](C=C(CO)C[C@]4(O)C(=O)C(C)=C[C@@H]34)[C@@H]1C2(C)C [SA-101A, 12-deoxyphorbol 13-acetate]	–	>0.50	no cytotoxicity	–	–	–	0.09 (≈ 0.23 µM)	0.5 (≈ 1.28 µM)	0.05 (≈ 0.128 µM)	0.39 (≈ 0.999 µM)	0.086 (≈ 0.22 µM)
